# Measurements from article doi:10.1101/2024.08.12.607575v1 (bioRxiv, 2024).
# Bridge positions count the residues as written; N and C are the ends. Peptide text beside a SMILES is read from it.
# Assays:
# [1] = test system: mouse bone marrow-derived macrophages (BMDMs); assay: Phagocytosis assay; type: cell-based; details: 10 µM 4 h, washed, 48 h follow-up, relative to MACTIDE and untreated
# human recombinant CD206 = target: T1, human recombinant CD206 (Homo sapiens, UniProt P22897); assay: Quartz Crystal Microbalance; type: binding; details: QCM, PAH/CD206 multilayer
# T1 sequence (P22897 19-1456): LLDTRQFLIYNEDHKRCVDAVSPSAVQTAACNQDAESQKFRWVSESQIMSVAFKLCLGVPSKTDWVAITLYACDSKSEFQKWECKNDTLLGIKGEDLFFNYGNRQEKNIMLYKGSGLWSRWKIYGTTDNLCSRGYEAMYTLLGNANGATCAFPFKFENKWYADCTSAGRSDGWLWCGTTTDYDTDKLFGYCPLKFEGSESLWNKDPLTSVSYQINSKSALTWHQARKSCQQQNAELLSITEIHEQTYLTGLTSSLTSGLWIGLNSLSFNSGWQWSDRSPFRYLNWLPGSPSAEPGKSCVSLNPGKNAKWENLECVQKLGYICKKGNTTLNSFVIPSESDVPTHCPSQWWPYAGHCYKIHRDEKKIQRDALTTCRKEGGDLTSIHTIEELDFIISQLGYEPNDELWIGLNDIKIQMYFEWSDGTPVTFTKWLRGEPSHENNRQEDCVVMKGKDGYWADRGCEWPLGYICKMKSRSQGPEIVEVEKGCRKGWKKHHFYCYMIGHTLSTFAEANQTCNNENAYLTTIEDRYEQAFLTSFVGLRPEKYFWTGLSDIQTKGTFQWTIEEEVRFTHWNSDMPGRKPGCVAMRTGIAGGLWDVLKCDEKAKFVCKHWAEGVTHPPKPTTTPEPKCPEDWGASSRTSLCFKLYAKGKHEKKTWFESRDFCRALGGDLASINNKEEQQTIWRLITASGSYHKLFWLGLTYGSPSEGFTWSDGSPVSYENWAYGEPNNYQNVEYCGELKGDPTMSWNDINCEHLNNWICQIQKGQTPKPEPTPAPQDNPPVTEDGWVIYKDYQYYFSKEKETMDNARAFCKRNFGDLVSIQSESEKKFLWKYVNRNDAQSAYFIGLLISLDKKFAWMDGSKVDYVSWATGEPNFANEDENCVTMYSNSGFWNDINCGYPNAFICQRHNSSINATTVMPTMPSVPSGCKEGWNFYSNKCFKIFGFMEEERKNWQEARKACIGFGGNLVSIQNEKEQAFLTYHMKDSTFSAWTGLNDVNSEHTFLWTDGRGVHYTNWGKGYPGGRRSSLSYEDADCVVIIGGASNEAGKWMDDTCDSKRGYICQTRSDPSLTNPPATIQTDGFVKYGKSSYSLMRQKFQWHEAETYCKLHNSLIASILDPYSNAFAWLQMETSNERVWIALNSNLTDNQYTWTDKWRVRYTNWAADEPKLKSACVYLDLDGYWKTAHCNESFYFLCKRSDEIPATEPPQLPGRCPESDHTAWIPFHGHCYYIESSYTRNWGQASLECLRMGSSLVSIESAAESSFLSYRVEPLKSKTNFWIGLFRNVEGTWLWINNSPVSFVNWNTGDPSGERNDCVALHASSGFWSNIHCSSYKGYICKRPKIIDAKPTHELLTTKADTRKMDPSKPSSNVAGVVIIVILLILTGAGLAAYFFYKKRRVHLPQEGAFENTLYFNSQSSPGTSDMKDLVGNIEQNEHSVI
# orthotopic 4T1.2 tumors = assay: MACTIDE-V monotherapy in orthotopic 4T1.2; type: in vivo, mouse; details: for CD8+ T cell density (mIHC): n=6 mice/group
# [2] = test system: mouse bone marrow-derived macrophages (BMDMs); assay: Flow cytometry of BMDM markers; type: cell-based; details: Balb/C BMDMs, 48 h after treatment, not statistically significant
# orthotopic 4T1 tumors = assay: In vivo photodynamic therapy / treatment in orthotopic 4T1; set-up: species or system mouse; details: 30 nmoles i.p., no irradiation, compared with irradiated MACTIDE-V
# CD206 = details: recognition moiety for CD206; cited from earlier work
# [3] = tumor cell suspensions, n=4 per group
compound,measurement,setting,value
CC[C@H](C)[C@@H]1NC(=O)[C@@H]2CCCN2C(=O)[C@@H]2CCCN2C(=O)[C@H]([C@@H](C)CC)NC(=O)[C@H](CO)NC(=O)[C@H](CCCCN)NC(=O)[C@H]([C@@H](C)O)NC(=O)[C@@H](NC(=O)CN)CSSC[C@@H](C(=O)N[C@@H](CO)C(=O)N2CCC[C@H]2C(=O)NCC(=O)N[C@@H](C)C(=O)N[C@@H](CCCCN)C(=O)O)NC1=O [MACTIDE] (H-GCTKSIPPICSPGAK-OH; disulfide 2-10),phagocytosis of fluorescent E. coli particles,[1],no effects
same,dissociation upon washing with PBS,human recombinant CD206,incompletely and slowly dissociated
Vert-Ahx-G(CTKSIPPIC)SPGAK-OH (disulfide) [MACTIDE-V],CD8+ T cell density (mIHC),orthotopic 4T1.2 tumors,trend of increased CD8^+ T cell density
same,percentage of CD206+ cells in tumor (flow cytometry),orthotopic 4T1.2 tumors; [3],did not reduce
same,polymorphonuclear (PMN) or TAM/monocyte cell populations (flow cytometry),orthotopic 4T1.2 tumors; [3],no effects
same,viability and differentiation of BMDMs,[2],slightly affected
same,"body weight, non-irradiated (-)",orthotopic 4T1 tumors,less effect on body weight
"Vert-Ahx-AKPCGS-OH [CtrlPep-V, reference compound]",CD8+ T cell density (mIHC),orthotopic 4T1.2 tumors,trend of increased CD8^+ T cell density
OC[C@H]1OC(O)[C@@H](O)[C@@H](O)[C@@H]1O (stereo partly drawn) [mannose],affinity of mannose,CD206,low millimolar range
